# Data reported in paper PMC8151276, “An Integrated Approach toward NanoBRET Tracers for Analysis of GPCR Ligand Engagement” (Molecules, 2021).
# Molecular target: T1, DRD3 (Homo sapiens, UniProt P35462)
# T1 construct: purchased Promega (in-house HiBiT-GPCR construct library, NanoBRET)
# Test: NanoBRET screen HiBiT-DRD3 in HEK293
# Format: binding
# Protocol: Each tracer candidate was screened across the entire library of HiBiT-GPCR constructs using NanoBRET as the detection modality. As depicted in Figure 4A, the specificity of interactions was evaluated through decrease in BRET due to competitive displacement of a bound tracer by excess parental compound. Each tracer was analyzed for binding to each HiBiT-GPCR fusion in the absence and in the presence of competing parental compound. Briefly, HEK293 cells were transfected with HiBiT-GPCR constructs diluted into promoterless DNA to reduce expression and maximize translocation to the cell surface. Each tracer candidate was then screened at concentrations of 1 μM and 0.1 μM across cells expressing these fusions. Cells were treated for 1.5 h with tracer either alone or in the presence of 20 μM competing parental compound (i.e., control). BRET was measured upon addition of purified LgBiT and subsequent complementation with HiBiT genetically fused to a GPCR. The specificity of interactions was assessed through a decrease in BRET signal due to competitive displacement of the bound tracer. To further gauge the robustness of these interactions, the fold response over the control (i.e., BRETtracer/BRETcontrol) was calculated. We chose a 1.5-fold response, which translates to ≥7-fold signal over noise as the minimal threshold required to score an interaction as positive.
# HiBiT-GPCR DNA constructs were diluted in 10 mM Tris pH 8 to a final concentration of 0.01 μg/μL, arrayed in 96-well plates and stored at −20 °C. For transfection, HEK293 cells were suspended in Opti-MEM (without phenol red) supplemented with 2% fetal bovine serum (Seradigm) and 100 units/mL penicillin–streptomycin (Gibco) at a final concentration of 220,000 cells/mL and dispensed into white 96-well plates at 90 μL/well. Subsequent transfections and screens were carried using an Agilent Bravo Automated Liquid Handling Platform. First, the 96-well HiBiT DNA arrays were diluted 25-fold in Opti-MEM (without serum or phenol red) to a final concentration of 0.0004 μg/μL and 20 μL of the diluted DNAs were transferred into new 96-well plates. Next, promoterless carrier DNA (1 μg/μL) was diluted 25-fold (0.04 μg/μL) and then dispensed into the diluted arrays at 20 μL/well. Following brief mixing, Viafect transfection reagent (Promega) diluted 16-fold into Opti-MEM was dispensed into the plates at 40 μL/well. After mixing by pipetting, plates were incubated for 10 min on the pipetting station deck. The DNA-transfection reagent complexes were then added to plates containing cells. To facilitate the screen, 10 μL of DNA-transfection reagent complexes were added in duplicates to the top 4 and bottom 4 rows, resulting in two identical 48-well arrays per plate. Plates with transfected cells were incubated for 18–20 h at 37 °C/5% CO2. A screen of each tracer across the entire library using two different concentrations requires duplicate plates of transfected cells. Depending on the number of tracers being screened, transfections can be scaled up using the same ratios. The next day, for each tracer, four 20× screening solutions in tracer dilution buffer (Promega) were prepared: two duplicates at final concentration of 20 μM and two duplicates at a final concentration of 2 μM. […] The four resulting solutions were diluted 4-fold in Opti-MEM without serum or phenol red to generate 5× solutions (5 µM and 0.5 µM tracer +/− 100 μM competing compound). To screen the library, a BioTek MultiFlo FX liquid dispenser was used to dispense 22.5 µL of tracer solution to the top 4 rows and 22.5 µL tracer + competing compound solution to the 4 bottom rows. Plates were briefly mixed on an orbital shaker and incubated for 1.5 h at room temperature. […] Plates were briefly mixed on an orbital shaker and incubated for 15 min to allow complementation.
# T1 sequence (P35462 whole entry): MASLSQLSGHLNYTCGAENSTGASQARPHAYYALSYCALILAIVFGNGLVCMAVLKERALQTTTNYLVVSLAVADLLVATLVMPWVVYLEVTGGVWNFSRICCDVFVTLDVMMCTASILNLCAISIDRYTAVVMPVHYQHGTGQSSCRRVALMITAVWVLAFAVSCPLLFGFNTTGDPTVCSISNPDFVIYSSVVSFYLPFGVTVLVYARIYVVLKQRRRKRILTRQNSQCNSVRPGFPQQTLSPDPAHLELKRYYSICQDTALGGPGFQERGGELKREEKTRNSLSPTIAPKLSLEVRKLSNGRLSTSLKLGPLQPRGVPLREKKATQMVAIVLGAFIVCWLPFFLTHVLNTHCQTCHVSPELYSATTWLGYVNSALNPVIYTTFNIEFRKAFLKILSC
compound,measurement,setting,value
CN1CCN(C2=Nc3cc(Cl)ccc3Nc3ccc(CNC(=O)CCOCCOCCOCCOCCNC(=O)CCc4ccc5n4[B-](F)(F)[N+]4=C(c6ccc[nH]6)C=CC4=C5)cc32)CC1 [Clozapine-b-2-NB590],NanoBRET Fold Response,"DRD3, 0.1μM tracer",1.54
same,NanoBRET Fold Response,"DRD3, 1μM tracer",2.63
CN(C)CCC=C1c2ccccc2CCc2ccc(C(=O)NCCNC(=O)CCOCCOCCOCCOCCNC(=O)CCc3ccc4n3[B-](F)(F)[N+]3=C(c5ccc[nH]5)C=CC3=C4)cc21 [Amitriptyline-b-2-NB590],NanoBRET Fold Response,"tracer at 0.1μM, listed as amitriptyline-b-2-NB590",1.68
same,NanoBRET Fold Response,"tracer at 1μM, listed as amitriptyline-b-2-NB590",1.25
CCOC(=O)c1cc(C#N)c(N2CCC(C(=O)NS(=O)(=O)Cc3ccccc3/C=C/C(=O)NCCNC(=O)CCc3ccc4n3[B-](F)(F)[N+]3=C(c5ccc[nH]5)C=CC3=C4)CC2)nc1C [AZD1283-1-NB590],NanoBRET Fold Response,"DRD3, 0.1μM",0.99
same,NanoBRET Fold Response,"DRD3, 1μM",1.01
CC(C)N(CC[C@H](c1ccccc1)c1cc(CCNC(=O)CCOCCOCCOCCOCCNC(=O)CCc2ccc3n2[B-](F)(F)[N+]2=C(c4ccc[nH]4)C=CC2=C3)ccc1O)C(C)C [Tolterodine-2-NB590],NanoBRET Fold Response,"DRD3, tracer 0.1μM",0.97
same,NanoBRET Fold Response,"DRD3, tracer 1μM",0.98
CC(C)N(CC[C@H](c1ccccc1)c1cc(CCNC(=O)c2ccc(CNC(=O)CCc3ccc4n3[B-](F)(F)[N+]3=C(c5ccc[nH]5)C=CC3=C4)cc2)ccc1O)C(C)C [Tolterodine-BZ-NB590],NanoBRET Fold Response,"DRD3, tracer 0.1μM",0.91
same,NanoBRET Fold Response,"DRD3, tracer 1μM",1.25
CN1CCN(C2=Nc3cc(Cl)ccc3N(CC(=O)NCCOCCOCCOCCOCCNC(=O)CCc3ccc4n3[B-](F)(F)[N+]3=C(c5ccc[nH]5)C=CC3=C4)c3ccccc32)CC1 [Clozapine-c-2-NB590],NanoBRET Fold Response,"DRD3, 0.1μM tracer",0.96
same,NanoBRET Fold Response,"DRD3, 1μM tracer",0.76
CN(C)CCC=C1c2ccccc2CCc2ccc(C(=O)NCCNC(=O)CCOCCOCCOCCOCCNC(=O)CCc3ccc4n3[B-](F)(F)[N+]3=C(c5ccc[nH]5)C=CC3=C4)cc21 [Amitriptyline-a-2-NB590],NanoBRET Fold Response,tracer at 0.1μM,1.13
same,NanoBRET Fold Response,tracer at 1μM,1.37
COc1ccc2[nH]c(-c3ccc(CNC(=O)CCOCCOCCOCCOCCNC(=O)CCc4ccc5n4[B-](F)(F)[N+]4=C(c6ccc[nH]6)C=CC4=C5)cc3)c(CCNC(C)=O)c2n1 [AzomelatoninICO9-2-NB590],NanoBRET Fold Response,0.1μM tracer,0.93
same,NanoBRET Fold Response,1μM tracer,1.05
COc1ccccc1N1CCN(CCCCN2C(=O)c3ccc(CNC(=O)CCOCCOCCOCCOCCNC(=O)CCc4ccc5n4[B-](F)(F)[N+]4=C(c6ccc[nH]6)C=CC4=C5)cc3C2=O)CC1 [NAN-190-2-NB590],NanoBRET Fold Response,"DRD3, tracer 0.1μM",2.36
same,NanoBRET Fold Response,"DRD3, tracer 1μM",1.69
O=C(CCc1ccc2n1[B-](F)(F)[N+]1=C(c3ccc[nH]3)C=CC1=C2)NCCOCCOCCNC(=O)OCCOCCN1CCN(C2=Nc3ccccc3Sc3ccccc32)CC1 [Quetiapine-a-2-NB590],NanoBRET Fold Response,"DRD3, tracer 0.1μM",1.56
same,NanoBRET Fold Response,"DRD3, tracer 1μM",1.98
O=C(CCOCCOCCOCCOCCNC(=O)CCc1ccc2n1[B-](F)(F)[N+]1=C(c3ccc[nH]3)C=CC1=C2)NCCCN1CCN(C2=Nc3cc(Cl)ccc3Nc3ccccc32)CC1 [Clozapine-a-2-NB590],NanoBRET Fold Response,"DRD3, 0.1μM tracer",2.22
same,NanoBRET Fold Response,"DRD3, 1μM tracer",2.49
N#CN=C(NCCCOc1cccc(CN2CCCCC2)c1)NCCNC(=O)CCOCCOCCOCCOCCNC(=O)CCc1ccc2n1[B-](F)(F)[N+]1=C(c3ccc[nH]3)C=CC1=C2 [Aminopotentidine-2-NB590],NanoBRET Fold Response,"DRD3, tracer 0.1μM",1.25
same,NanoBRET Fold Response,"DRD3, tracer 1μM",1.17
O=C(CCc1ccc2n1[B-](F)(F)[N+]1=C(c3ccc[nH]3)C=CC1=C2)NCc1ccc(C(=O)NCCOCCOCCNCC(O)COc2cccc3ccccc23)cc1 (stereo not drawn) [Propranolol-3-NB590],NanoBRET Fold Response,"DRD3, 0.1μM",1.05
same,NanoBRET Fold Response,"DRD3, 1μM",1.30
O=C(CCc1ccc2n1[B-](F)(F)[N+]1=C(c3ccc[nH]3)C=CC1=C2)NCc1ccc(C(=O)NCCOCCC(=O)N[C@@H]2CC[C@@]3(O)[C@H]4Cc5ccc(O)c6c5[C@@]3(CCN4CC3CC3)[C@H]2O6)cc1 [Naltrexone-3-NB590],NanoBRET Fold Response,"DRD3, tracer 0.1μM",0.79
same,NanoBRET Fold Response,"DRD3, tracer 1μM",1.37
COc1ccccc1N1CCN(CCCCN2C(=O)c3ccc(CNC(=O)CCOCCNC(=O)c4ccc(CNC(=O)CCc5ccc6n5[B-](F)(F)[N+]5=C(c7ccc[nH]7)C=CC5=C6)cc4)cc3C2=O)CC1 [NAN-190-3-NB590],NanoBRET Fold Response,"DRD3, tracer 0.1μM",2.25
same,NanoBRET Fold Response,"DRD3, tracer 1μM",1.52
Cc1cc2c(s1)Nc1ccccc1N=C2N1CCN(CCCNC(=O)CCOCCOCCOCCOCCNC(=O)CCc2ccc3n2[B-](F)(F)[N+]2=C(c4ccc[nH]4)C=CC2=C3)CC1 [Olanzapine-a-2-NB590],NanoBRET Fold Response,"DRD3, tracer 0.1μM",1.74
same,NanoBRET Fold Response,"DRD3, tracer 1μM",2.07
CCCn1c(=O)c2[nH]c(-c3ccc(OCC(=O)NCCNC(=O)CCOCCNC(=O)c4ccc(CNC(=O)CCc5ccc6n5[B-](F)(F)[N+]5=C(c7ccc[nH]7)C=CC5=C6)cc4)cc3)nc2n(CCC)c1=O [XAC-3-NB590],NanoBRET Fold Response,"DRD3, tracer 0.1μM",1.23
same,NanoBRET Fold Response,"DRD3, tracer 1μM",0.81
N#CN/C(=N\CCNC(=O)c1ccc(N)cc1)NCCCOc1cccc(CN2CCCCC2)c1 [Aminopotentidine (unmodified)],NanoBRET Fold Response,"DRD3, other tracers/Aminopotentidine (unmodified), 0.1μM",1.16
same,NanoBRET Fold Response,"DRD3, other tracers/Aminopotentidine (unmodified), 1μM",1.64
CN(CCC=C1c2ccccc2CCc2ccccc21)C(=O)CCOCCOCCOCCOCCNC(=O)CCc1ccc2n1[B-](F)(F)[N+]1=C(c3ccc[nH]3)C=CC1=C2 [Amitriptyline-e-2-NB590],NanoBRET Fold Response,tracer at 1μM,1.24
COc1ccc2c(n1)c(CCNC(C)=O)cn2CCNC(=O)CCc1ccc2n1[B-](F)(F)[N+]1=C(c3ccc[nH]3)C=CC1=C2 [Azamelatonin-1-NB590],NanoBRET Fold Response,0.1μM tracer,1.14
same,NanoBRET Fold Response,1μM tracer,1.27
